Data taken from patent US10793563B2, “GCN2 inhibitors and uses thereof” (Merck Patent GmbH, priority 2018, dated 2020).

Legend:
[1] = target: intracellular GCN2 (phosphorylation of the GCN2 substrate eIF2α) (Homo sapiens (Human), UniProt Q9P2K8); assay: GCN2 Cellular Inhibition Assay (AlphaScreen SureFire P-eIF2α Ser51, borrelidin-treated U2OS cells); format: cell-based; settings: 10 μM borrelidin, 1 h, phosphorylated eIF2α Ser51, read-out: GCN2 Biomarker (IC50)
Summary of the method: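 U2OS cells adhered overnight, then given compound (top 40 μM, 4-fold serial dilutions) plus 10 μM borrelidin for 1 h at 37 °C. Lysates assayed for eIF2α phospho-Ser51 by AlphaScreen SureFire; % inhibition versus borrelidin-only wells.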

GCN2 kinase = GCN2 kinase (Homo sapiens (Human), UniProt Q9P2K8); assay: GCN2 Enzyme Inhibition Assay (Transcreener ADP2 fluorescence polarization); format: biochemical; settings: 280 μM ATP, 200 μM (RS)7 peptide, 4 nM GCN2, 25° C.
Sequence of GCN2 kinase (Q9P2K8 whole entry): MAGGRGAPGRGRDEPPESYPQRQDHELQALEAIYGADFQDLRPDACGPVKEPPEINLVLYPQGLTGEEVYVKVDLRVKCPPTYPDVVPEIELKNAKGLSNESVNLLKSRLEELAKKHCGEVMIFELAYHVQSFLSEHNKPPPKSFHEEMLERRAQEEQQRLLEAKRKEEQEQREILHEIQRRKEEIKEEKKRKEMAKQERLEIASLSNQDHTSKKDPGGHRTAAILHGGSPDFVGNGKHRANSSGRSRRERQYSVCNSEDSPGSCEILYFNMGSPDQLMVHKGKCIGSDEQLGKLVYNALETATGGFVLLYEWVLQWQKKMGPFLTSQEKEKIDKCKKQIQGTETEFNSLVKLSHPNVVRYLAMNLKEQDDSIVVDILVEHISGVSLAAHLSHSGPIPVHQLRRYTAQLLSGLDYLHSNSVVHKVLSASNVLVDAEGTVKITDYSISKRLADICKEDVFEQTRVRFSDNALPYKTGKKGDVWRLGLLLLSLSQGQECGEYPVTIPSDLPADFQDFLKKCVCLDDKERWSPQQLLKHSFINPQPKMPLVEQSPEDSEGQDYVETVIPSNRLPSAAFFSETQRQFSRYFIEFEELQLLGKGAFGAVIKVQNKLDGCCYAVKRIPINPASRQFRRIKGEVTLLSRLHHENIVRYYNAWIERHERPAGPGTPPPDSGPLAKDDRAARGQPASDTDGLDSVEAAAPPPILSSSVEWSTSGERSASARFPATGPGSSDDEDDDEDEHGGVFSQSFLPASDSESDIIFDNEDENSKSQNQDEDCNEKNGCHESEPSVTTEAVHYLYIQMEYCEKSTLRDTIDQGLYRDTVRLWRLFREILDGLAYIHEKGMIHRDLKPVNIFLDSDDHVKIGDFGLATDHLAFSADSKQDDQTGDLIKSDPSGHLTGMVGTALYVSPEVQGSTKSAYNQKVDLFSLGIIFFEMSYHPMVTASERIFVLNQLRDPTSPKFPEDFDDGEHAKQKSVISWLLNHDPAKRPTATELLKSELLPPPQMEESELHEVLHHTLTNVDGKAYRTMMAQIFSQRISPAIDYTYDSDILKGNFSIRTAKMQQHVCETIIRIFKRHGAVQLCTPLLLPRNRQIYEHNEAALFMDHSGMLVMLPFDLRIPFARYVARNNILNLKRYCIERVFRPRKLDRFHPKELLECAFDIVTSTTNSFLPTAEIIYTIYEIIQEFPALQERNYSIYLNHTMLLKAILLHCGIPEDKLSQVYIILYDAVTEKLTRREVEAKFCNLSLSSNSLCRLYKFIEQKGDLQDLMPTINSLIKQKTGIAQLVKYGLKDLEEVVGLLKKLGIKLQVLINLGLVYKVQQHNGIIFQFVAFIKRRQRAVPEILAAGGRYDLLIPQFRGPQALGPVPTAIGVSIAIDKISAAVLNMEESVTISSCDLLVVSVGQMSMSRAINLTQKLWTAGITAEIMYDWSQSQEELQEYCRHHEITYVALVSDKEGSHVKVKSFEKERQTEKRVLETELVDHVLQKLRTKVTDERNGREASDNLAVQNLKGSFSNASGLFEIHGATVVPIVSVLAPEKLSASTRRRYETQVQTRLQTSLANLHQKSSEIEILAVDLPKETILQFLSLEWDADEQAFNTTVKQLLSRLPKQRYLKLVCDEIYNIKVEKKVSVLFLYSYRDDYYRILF
Summary of the method: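 Transcreener ADP2 fluorescence polarization detection of ADP from 4 nM GCN2 with (RS)7 substrate in 25 mM Tris-HCl pH 7.5, 50 mM NaCl, 10 mM MgCl2, 1 mM DTT. Compound pre-incubated with enzyme 10 min at 25 °C; reaction started by ATP, run 1 h at 25 °C. IC50 and Ki(app) by tight-binding fit.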

Sequence of intracellular GCN2 (phosphorylation of the GCN2 substrate eIF2α) (Q9P2K8 whole entry): as above

IC50 [1] [nM]	IC50 (GCN2 kinase) [nM]	SMILES
500 to 5000	10 to 100	C[C@@H]1C[C@H](N=S(C)(C)=O)CN(c2nccc(-c3cnc4cc(Cl)c(Cl)cn34)n2)C1 [I-244, (((3 S,5R)-1-(4-(6,7-dichloroimidazo[1,2-a]pyridin-3-yl)pyrimidin-2-yl)-5-methylpiperidin-3-yl)imino)dimethyl-λ6-sulfanone]
500 to 5000	10 to 100	NC(=O)C1CN(c2ccnc(-c3cnc4ccc(C(F)(F)F)cn34)n2)CCN1CCC(F)(F)F (stereo not shown) [I-245, 4-(2-(6-(trifluoromethyl)imidazo[1,2-a]pyridin-3-yl)pyrimidin-4-yl)-1-(3,3,3-trifluoropropyl)piperazine-2-carboxamide]
500 to 5000	10 to 100	C[C@H]1CN(c2nccc(-c3cnc4ccc(Cl)cn34)n2)C[C@H](c2cn[nH]c2)O1 [I-246, (2S,6S)-4-(4-(6-chloroimidazo[1,2-a]pyridin-3-yl)pyrimidin-2-yl)-2-methyl-6-(1H-pyrazol-4-yl)morpholine]
500 to 5000	10 to 100	C[C@@H]1CN(c2nccc(-c3cnc4ccc(Cl)cn34)n2)C[C@@H](c2cn[nH]c2)O1 [I-251, (2R,6R)-4-(4-(6-chloroimidazo[1,2-a]pyridin-3-yl)pyrimidin-2-yl)-2-methyl-6-(1H-pyrazol-4-yl)morpholine]
500 to 5000	100 to 1000	C[C@@H]1C[C@@H](NC(=O)OC(C)(C)C)CN(c2ccnc(-c3cnc4ccc(Cl)cn34)n2)C1 [I-252, tert-butyl ((3R,5R)-1-(2-(6-chloroimidazo[1,2-a]pyridin-3-yl)pyrimidin-4-yl)-5-methylpiperidin-3-yl)carbamate]
< 500	< 10	NC(=O)[C@@H]1CCCN(c2nc(-c3cnc4ccc(C(F)(F)F)cn34)ccc2F)C1 [I-260, (R)-1-(3-fluoro-6-(6-(trifluoromethyl)imidazo[1,2-a]pyridin-3-yl)pyridin-2-yl)piperidine-3-carboxamide]
< 500	< 10	C[C@@H]1C[C@@H](c2cn[nH]c2)CN(c2nccc(-c3cnc4ccc(N5CC(F)(F)C5)cn34)n2)C1 [I-261, 6-(3,3-difluoroazetidin-1-yl)-3-(2-((3R,5S)-3-methyl-5-(1H-pyrazol-4-yl)piperidin-1-yl)pyrimidin-4-yl)imidazo[1,2-a]pyridine]
> 5000	10 to 100	C[C@@H]1C[C@H](N=S(C)(C)=O)CN(c2ccnc(-c3cnc4ccc(C#N)cn34)n2)C1 [I-262, 3-(4-((3S,5R)-3-((dimethyl(oxo)-λ6-sulfaneylidene)amino)-5-methylpiperidin-1-yl)pyrimidin-2-yl)imidazo[1,2-a]pyridine-6-carbonitrile]
500 to 5000	10 to 100	NC(=O)C1CN(c2ccnc(-c3cnc4ccc(C(F)(F)F)cn34)n2)CCN1C1COC1 (stereo not shown) [I-263, 1-(oxetan-3-yl)-4-(2-(6-(trifluoromethyl)imidazo[1,2-a]pyridin-3-yl)pyrimidin-4-yl)piperazine-2-carboxamide]
< 500	< 10	CC1CN(c2ccnc(-c3cnc4ccc(Cl)cn34)n2)CC(c2cn[nH]c2)N1 (stereo not shown) [I-266, 6-chloro-3-(4-(3-methyl-5-(1H-pyrazol-4-yl)piperazin-1-yl)pyrimidin-2-yl)imidazo[1,2-a]pyridine]
500 to 5000	10 to 100	Cc1[nH]ncc1C1CN(c2ccnc(-c3cnc4ccc(Cl)cn34)n2)CC(C)N1 (stereo not shown) [I-267, 6-chloro-3-(4-(3-methyl-5-(5-methyl-1H-pyrazol-4-yl)piperazin-1-yl)pyrimidin-2-yl)imidazo[1,2-a]pyridine]
500 to 5000	< 10	Cc1[nH]ncc1C1CN(c2ccnc(-c3cnc4ccc(Cl)cn34)n2)CC(C)N1S(C)(=O)=O (stereo not shown) [I-268, 6-chloro-3-(4-(3-methyl-5-(5-methyl-1H-pyrazol-4-yl)-4-(methylsulfonyl)piperazin-1-yl)pyrimidin-2-yl)imidazo[1,2-a]pyridine]
500 to 5000	10 to 100	C[C@@H]1C[C@H](N=S(C)(C)=O)CN(c2ccnc(-c3cnc4cc(Cl)c(Cl)cn34)n2)C1 [I-269, (((3 S,5R)-1-(2-(6,7-dichloroimidazo[1,2-a]pyridin-3-yl)pyrimidin-4-yl)-5-methylpiperidin-3-yl)imino)dimethyl-λ6-sulfanone]
< 500	< 10	C[C@H]1CN(c2nccc(-c3cnc4cc(F)c(Cl)cn34)n2)C[C@@H](c2cn[nH]c2)O1 [I-270, (2S,6R)-4-(4-(6-chloro-7-fluoroimidazo[1,2-a]pyridin-3-yl)pyrimidin-2-yl)-2-methyl-6-(1H-pyrazol-4-yl)morpholine]
< 500	< 10	C[C@@H]1CN(c2nccc(-c3cnc4cc(F)c(Cl)cn34)n2)C[C@H](c2cn[nH]c2)O1 [I-273, (2R,6S)-4-(4-(6-chloro-7-fluoroimidazo[1,2-a]pyridin-3-yl)pyrimidin-2-yl)-2-methyl-6-(1H-pyrazol-4-yl)morpholine]
500 to 5000	10 to 100	C[C@@H]1CN(c2nccc(-c3cnc4cc(F)c(Cl)cn34)n2)C[C@@H](c2cn[nH]c2)O1 [I-274, (2R,6R)-4-(4-(6-chloro-7-fluoroimidazo[1,2-a]pyridin-3-yl)pyrimidin-2-yl)-2-methyl-6-(1H-pyrazol-4-yl)morpholine]
500 to 5000	< 10	C[C@H]1CN(c2nccc(-c3cnc4cc(F)c(Cl)cn34)n2)C[C@H](c2cn[nH]c2)O1 [I-275, (2S,6S)-4-(4-(6-chloro-7-fluoroimidazo[1,2-a]pyridin-3-yl)pyrimidin-2-yl)-2-methyl-6-(1H-pyrazol-4-yl)morpholine]
500 to 5000	10 to 100	CC(=O)N1C(C)CN(c2ccnc(-c3cnc4ccc(Cl)cn34)n2)CC1c1cn[nH]c1 (stereo not shown) [I-277, 1-(4-(2-(6-chloroimidazo[1,2-a]pyridin-3-yl)pyrimidin-4-yl)-2-methyl-6-(1H-pyrazol-4-yl)piperazin-1-yl)ethan-1-one]
< 500	< 10	NC(=O)[C@H]1CCCN(c2nc(-c3cnc4ccc(C(F)(F)F)cn34)ncc2F)C1 [I-278, (S)-1-(5-fluoro-2-(6-(trifluoromethyl)imidazo[1,2-a]pyridin-3-yl)pyrimidin-4-yl)piperidine-3-carboxamide]
500 to 5000	10 to 100	COc1cc(-c2cnc3ccc(Cl)cn23)nc(N2C[C@H](C)C[C@H](c3cn[nH]c3)C2)n1 [I-279, 6-chloro-3-(6-methoxy-2-((3R,5R)-3-methyl-5-(1H-pyrazol-4-yl)piperidin-1-yl)pyrimidin-4-yl)imidazo[1,2-a]pyridine]
< 500	10 to 100	COc1cc(-c2cnc3ccc(Cl)cn23)nc(N2C[C@H](C)C[C@@H](c3cn[nH]c3)C2)n1 [I-280, 6-chloro-3-(6-methoxy-2-((3R,5S)-3-methyl-5-(1H-pyrazol-4-yl)piperidin-1-yl)pyrimidin-4-yl)imidazo[1,2-a]pyridine]
< 500	10 to 100	COc1cc(-c2cnc3ccc(Cl)cn23)nc(N2C[C@@H](C)C[C@@H](c3cn[nH]c3)C2)n1 [I-281, 6-chloro-3-(6-methoxy-2-((3S,5S)-3-methyl-5-(1H-pyrazol-4-yl)piperidin-1-yl)pyrimidin-4-yl)imidazo[1,2-a]pyridine]
500 to 5000	10 to 100	CN(CC1CCCN(c2ccnc(-c3cnc4ccc(Cl)cn34)n2)C1)S(C)(=O)=O (stereo not shown) [I-283, N-((1-(2-(6-chloroimidazo[1,2-a]pyridin-3-yl)pyrimidin-4-yl)piperidin-3-yl)methyl)-N-methylmethanesulfonamide]
> 5000	10 to 100	CC(C)(C(=O)O)C1CCCN(c2ccnc(-c3cnc4ccc(Cl)cn34)n2)C1 (stereo not shown) [I-284, 2-(1-(2-(6-chloroimidazo[1,2-a]pyridin-3-yl)pyrimidin-4-yl)piperidin-3-yl)-2-methylpropanoic acid]
500 to 5000	100 to 1000	CC(C)(C)OC(=O)N1CC2(CCCN(c3ccnc(-c4cnc5ccc(Cl)cn45)n3)C2)C1 [I-285, tert-butyl 6-(2-(6-chloroimidazo[1,2-a]pyridin-3-yl)pyrimidin-4-yl)-2,6-diazaspiro[3.5]nonane-2-carboxylate]
500 to 5000	< 10	NC(=O)C1CN(c2ccnc(-c3cnc4ccc(Cl)cn34)n2)CCN1C1CC1 (stereo not shown) [I-286, 4-(2-(6-chloroimidazo[1,2-a]pyridin-3-yl)pyrimidin-4-yl)-1-cyclopropylpiperazine-2-carboxamide]
< 500	10 to 100	Cc1cc(-c2cnc3ccc(N4CC(F)(F)C4)cn23)nc(N2C[C@@H](C)C[C@H](c3cn[nH]c3)C2)n1 [I-287, 6-(3,3-difluoroazetidin-1-yl)-3-(6-methyl-2-((3 S, 5R)-3-methyl-5-(1H-pyrazol-4-yl)piperidin-1-yl)pyrimidin-4-yl)imidazo[1,2-a]pyridine]
< 500	< 10	Cc1cc(-c2cnc3ccc(N4CC(F)(F)C4)cn23)nc(N2C[C@H](C)C[C@H](c3cn[nH]c3)C2)n1 [I-288, 6-(3,3-difluoroazetidin-1-yl)-3-(6-methyl-2-((3R,5R)-3-methyl-5-(1H-pyrazol-4-yl)piperidin-1-yl)pyrimidin-4-yl)imidazo[1,2-a]pyridine]
500 to 5000	10 to 100	C[C@@H]1C[C@H](N=S(C)(C)=O)CN(c2ccnc(-c3cnc4ccc(Br)cn34)n2)C1 [I-289, (((3 S,5R)-1-(2-(6-bromoimidazo[1,2-a]pyridin-3-yl)pyrimidin-4-yl)-5-methylpiperidin-3-yl)imino)dimethyl-λ6-sulfanone]
